These results are taken from US20230331720A1, “MEDIUM- OR MACRO-CYCLIC BENZYL-SUBSTITUTED HETEROCYCLE DERIVATIVES AND THEIR USES AS OREXIN-2 RECEPTOR AGONISTS” (Orexia Therapeutics Limited, priority 2020, published 2023).

SMILES strings stand for the structures.

The target in this assay is T1, human orexin type 2 receptor (hOX2R) (Homo sapiens, UniProt O43614).
T1 construct: expressed in transfected cells
T1 sequence (O43614 1-444): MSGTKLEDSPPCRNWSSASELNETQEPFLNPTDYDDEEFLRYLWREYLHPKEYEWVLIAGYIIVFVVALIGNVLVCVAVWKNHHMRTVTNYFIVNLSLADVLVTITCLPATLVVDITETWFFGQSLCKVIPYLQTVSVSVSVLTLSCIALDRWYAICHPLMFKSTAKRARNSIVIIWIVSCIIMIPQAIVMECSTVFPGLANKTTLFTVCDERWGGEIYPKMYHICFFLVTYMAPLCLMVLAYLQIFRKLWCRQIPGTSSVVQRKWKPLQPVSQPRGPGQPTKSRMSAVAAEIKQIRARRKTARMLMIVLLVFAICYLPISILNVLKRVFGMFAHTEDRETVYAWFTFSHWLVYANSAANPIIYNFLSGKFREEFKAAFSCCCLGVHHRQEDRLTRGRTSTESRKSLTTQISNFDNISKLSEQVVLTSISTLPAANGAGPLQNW
The assay can be described thus: Orexin type 2 receptor agonist activity, intracellular Ca2+ (FLIPR TETRA). The assay is classed as cell-based. Conditions: CHO cells expressing hOX2R, Ca2+ fluorescence area; for EC50: read-out: hOx2 pEC50 (converted). The procedure:
Stable cell line generation. Obtainment of cells stably expressing either human orexin type 2 or human orexin type 1 receptor; to obtain a stable cell line the Orexin receptor cDNA was inserted into pcDNA3.1(+) plasmid vector and clones identified by G418 drug resistance selection. […] A single clone for OX2R-CHO and OX1R-CHO were grown in bulk and frozen to generate a cell bank for routine screening.
Measurement of orexin type 2 receptor agonist activity. Chinese hamster ovary (CHO) cells expressing human orexin type 2 receptor (hOX2R) or human orexin type 1 receptor (hOX1R) were seeded in each well of 384 well black clear bottom plates (BD Flacon) at 10,000 cells per well and cultured for 24 hr in an Ham's F12 (Gibco) medium containing 10% fetal calf serum (Sigma Aldrich) under the conditions of 37° C., 5% CO2. After removal of the medium, 50 μl of assay buffer 1 (0.1% bovine serum albumin (Sigma Aldrich), 20 mM HEPES (Molecular Dimensions), […] probenecid (Sigma Aldrich), 1× Calcium 5 dye (Molecular Devices) in Hank's balanced salt solution (Invitrogen)) was added, and the cells were incubated for 60 min under the conditions of 37° C., 5% CO2. A test compound was dissolved in dimethyl sulfoxide (Sigma Aldrich) to 10 mM, and then diluted with assay buffer 2 (20 mM HEPES, Hank's balanced salt solution, 0.1% bovine serum albumin). For the reaction, a test compound solution (10 μl) was added using Fluorescent Imaging Plate Reader TETRA (FLIPR TETRA: manufactured by Molecular Devices), a fluorescence value (excitation wavelength 488 nm, measurement wavelength 570 nm) of each well was measured every one second for 2 min, and the agonist activity was determined using the area of the fluorescence value as an indicator of intracellular Ca^2+ concentration. The agonist activity of the test compound was calculated assuming that the fluorescence value of the well added with only the dilution buffer was 0% and the fluorescence value of the well added with 10 nM human orexin A (Tocris) buffer was 100%. As used herein, Emax indicates the value at 10 μM concentration when orexin A is converted to a full agonist (maximum value of agonist activity: 100%).

Regarding `CN1CCOc2ccccc2-c2cccc(c2)CC2C(NS(C)(=O)=O)CCCN2C1=O` (racemic) [Compound A1-2, N-(6-methyl-5-oxo-9-oxa-6-aza-4(2,1)-piperidina-1(1,2),2(1,3)-dibenzena-cyclo-nonaphane-4^3-yl)methanesulfonamide], the EC50 is 100 to 1000 nM.
In the case of `CN1CCOc2ccccc2-c2cccc(c2)C[C@H]2[C@@H](NS(=O)(=O)C(F)F)C3(CC3)CN2C1=O` [Compound A1-95, 1,1-difluoro-N-((2′S,3′S)-6′-methyl-5′-oxospiro[cyclopropane-1,4′-9-oxa-6-aza-4(2,1)-pyrrolidina-1(1,2),2(1,3)-dibenzenacyclononaphan]-3′-yl)methanesulfonamide], the EC50 was 1 to 10 nM.
With `CCS(=O)(=O)N[C@H]1CCCN2C(=O)CCOc3ccccc3-c3cccc(c3)C[C@@H]12` [Compound A1-74, N-((4^2,4^3S)-5-oxo-8-oxa-4(2,1)-piperidina-1(1,2),2(1.3)-dibenzenacyclo-octaphane-4^3-yl)ethanesulfonamide], the EC50 was 10 to 100 nM.
On the same count and under the same terms, next, `CS(=O)(=O)N[C@H]1CCN2C(=O)C(F)(F)CCCCCc3ccccc3-c3cccc(c3)C[C@@H]12` [Compound A1-66]: 10 to 100 nM; `CS(=O)(=O)N[C@H]1CCCN2C(=O)NCCOc3ccccc3-c3cccc(c3F)C[C@@H]12` [Compound A1-73]: 1 to 10 nM.
Regarding `O=C1CCOc2ccccc2-c2cccc(c2F)C[C@H]2[C@@H](NS(=O)(=O)C(F)F)[C@@H](F)CN12` [Compound A1-96], the EC50 was 10 to 100 nM.
Take `CCS(=O)(=O)NC1CCN2C(=O)CCCc3ccccc3-c3cccc(c3)CC12` (racemic) [Compound A1-19, N-(5-oxo-4(2,1)-pyrrolidina-1(1,2),2(1,3)-dibenzenacyclooctaphane-4^3-yl)ethanesulfonamide]: the EC50 is 100 to 1000 nM.
As to `O=C1CCOc2ccccc2-c2cc(F)cc(c2F)C[C@H]2[C@@H](NS(=O)(=O)CF)CCCN12` [Compound A1-97], the EC50 is 10 to 100 nM.
For the compound `O=C1CCOc2cccc(F)c2-c2cccc(c2)C[C@H]2[C@@H](NS(=O)(=O)CF)CCCN12` [Compound A1-89, 1-fluoro-N-((4^2S,4^3S)-16-fluoro-5-oxo-8-oxa-4(2,1)-piperidina-1(1,2),2(1,3)-dibenzenacyclooctaphane-4^3-yl)methanesulfonamide], the EC50 was 10 to 100 nM.
For `CCS(=O)(=O)NC1CCN2C(=O)CCOCCCc3ccccc3-c3cccc(c3)CC12` (racemic) [Compound A1-20, N-(5-oxo-8-oxa-4(2,1)-pyrrolidina-1(1,2),2(1,3)-dibenzenacyclo-undecaphane-4^3-yl)ethanesulfonamide], the EC50 was 100 to 1000 nM.
For the compound `CCS(=O)(=O)NC1CCN2C(=O)OCCCCCc3ccccc3-c3cccc(c3)CC12` (racemic) [Compound A1-54, N-(5-oxo-6-oxa-4(2,1)-pyrrolidina-1(1,2),2(1.3)-dibenzenacyclo-undecaphane-4^3-yl)ethanesulfonamide], the EC50 was 10 to 100 nM.
Consider `COc1c2cccc1-c1ccccc1OCCC(=O)N1CCC[C@H](NS(C)(=O)=O)[C@@H]1C2` [Compound A1-83], for which the EC50 was 1 to 10 nM.
As to `CS(=O)(=O)NC1CCN2C(=O)N3CC(CCCc4ccccc4-c4cccc(c4)CC12)C3` (racemic) [Compound A1-14, N-(5-oxo-4(2,1)-pyrrolidina-6(1,3)-azetidina-1(1,2),2(1,3)-dibenzenacyclo-nonaphane-4^3-yl)methanesulfonamide], the EC50 was 10 to 100 nM.
With `CCS(=O)(=O)NC1CCN2C(=O)N3CC[C@H]3COc3ccccc3-c3cccc(c3)CC12` (some centres unmarked) [Compound A1-65], the EC50 was 10 to 100 nM.
Consider `CN(C)S(=O)(=O)N[C@@H]1CCCN2C(=O)CCOc3ccccc3-c3cccc(c3)C[C@H]12` [Compound A1-75], for which the EC50 was 10 to 100 nM.
As for `CS(=O)(=O)N[C@@H]1CCCN2C(=O)CCCOc3ccccc3-c3cccc(c3)C[C@H]12` (racemic) [Compound A1-6, N-(5-oxo-9-oxa-4(2,1)-piperidina-1(1,2),2(1,3)-dibenzenacyclononaphane-4^3-yl)methanesulfonamide], the EC50 was 10 to 100 nM.
The same measure, in the same setting: next, `CCS(=O)(=O)NC1CCN2C(=O)CCC/C=C/Cc3ccccc3-c3cccc(c3)CC12` (racemic) [Compound A1-41, (E/Z)—N-(5-oxo-4(2,1)-pyrrolidina-1(1.2),2(1,3)-dibenzenacyclo-undecaphan-9-en-4^3-yl)ethanesulfonamide]: 10 to 100 nM; `CN1CCOc2ccccc2-c2cccc(c2)C[C@H]2[C@@H](NS(=O)(=O)N(C)C)[C@@H](F)CN2C1=O` [Compound A1-81]: 1 to 10 nM.
Still for that read-out and setting: next, `CS(=O)(=O)NC1CCCN2C(=O)OCCOc3ccccc3-c3cccc(c3)CC12` (centres unmarked) [Compound A1-63]: 10 to 100 nM; `CN1CCOc2ccccc2-c2cccc(c2)C[C@H]2[C@@H](NS(C)(=O)=O)CCN2C1=O` [Compound A1-61]: 10 to 100 nM; `CS(=O)(=O)N[C@H]1CCCN2C(=O)NCCOc3ccccc3-c3cccc(c3)C[C@@H]12` [Compound A1-4, N-((4^2S,4^3S)-5-oxo-9-oxa-6-aza-4(2,1)-piperidina-1(1,2),2(1,3)-dibenzenacyclo-nonaphane-4^3-yl)methanesulfonamide]: 100 to 1000 nM.
For the compound `O=C1CCOc2ccccc2-c2cccc(c2F)C[C@H]2[C@@H](NS(=O)(=O)CF)CCCN12` [Compound A1-102], the EC50 is 10 to 100 nM.
On the same count and under the same terms, next, `CS(=O)(=O)NC1CCCN2C(=O)CCCCCCc3ccccc3-c3cccc(c3)CC12` (racemic) [Compound A1-28, N-(5-oxo-4(2,1)-piperidina-1(1,2),2(1,3)-dibenzenacycloundecaphane-4^3-yl)methanesulfonamide]: 10 to 100 nM.
Take `C[C@H]1COc2ccccc2-c2cccc(c2)C[C@H]2[C@@H](NS(C)(=O)=O)CCCN2C1=O` [Compound A1-85]: the EC50 was 10 to 100 nM.
On to `CS(=O)(=O)NC1CCCN2C(=O)CCCc3ccccc3-c3cccc(c3)CC12` (centres unmarked) [Compound A1-59], for which the EC50 is 10 to 100 nM.
`CCS(=O)(=O)NC1CCN2C(=O)NCCCCCOc3ccccc3-c3cccc(c3)CC12` (centres unmarked) [Compound A1-23, N-(5-oxo-12-oxa-6-aza-4(2,1)-pyrrolidina-1(1,2),2(1,3)-dibenzenacyclo-dodecaphane-43-yl)ethanesulfonamide]: the “hOx2 pEC50” value is given as “+ (6.0≤“+”<7.0)”.
As for `CS(=O)(=O)NC1CCCN2C(=O)CCCCc3ccccc3-c3cccc(c3)CC12` (racemic) [Compound A1-1, N-(5-oxo-4(2,1)-piperidina-1(1,2),2(1,3)-dibenzenacyclononaphane-4^3-yl)-methanesulfonamide], the EC50 was 100 to 1000 nM.
On to `CCS(=O)(=O)NC1CCN2C(=O)NCCOc3ccccc3-c3cccc(c3)CC12` (racemic) [Compound A1-30, N-(5-oxo-9-oxa-6-aza-4(2,1)-pyrrolidina-1(1,2),2(1,3)-dibenzenacyclo-nonaphane-4^3-yl)ethanesulfonamide], for which the EC50 is 10 to 100 nM.
`CCS(=O)(=O)N[C@H]1CCN2C(=O)NCCCCCc3ccccc3-c3cccc(c3)C[C@@H]12` (single isomer, unassigned) [Compound A1-42, N-((4^2S,4^3S)-5-oxo-6-aza-4(2,1)-pyrrolidina-1(1,2),2(1,3)-dibenzenacycloundecaphane-4^3-yl)ethanesulfonamide]: the EC50 is 0.1 to 1 nM.
